In assay [1] the test system is Wnt/β-catenin target gene expression in MC3T3 cells. Briefly: Flexercell mechanical load gene expression in MC3T3 cells (real-time PCR). The following applies: for load induced Frizzled 2, eNOS, Fos and Jun gene expression: MC3T3, 1-60 μM added 1 hr prior to load; for load induced Connexin 43, Cyclin D1, Wnt 10b, SFRP1 and COX-2 gene expression: MC3T3, 1-60 μM added 1 hr prior to load (3,400 με, 5 hrs). For orientation: In qPCR the cycle at which signal appears reflects the starting amount.
Description: For these experiments, the mouse MC3T3 osteoblastic cells were cultured in alpha minimum essential media (αMEM) (Invitrogen) supplemented with 10% heat inactivated FBS, 1% glutamax (Invitrogen) and 1% penicillin/streptomycin (Invitrogen). […] For those samples being pretreated in serum free media the cells were washed twice each with 2 mL of basal αMEM media prior to adding the BSA containing media. […] The cells were then subjected to mechanical distortion equivalent to 3,400 με (2 Hz, 7200 cycles/hr), for 5 hrs using a FX-3000 Flexercell® strain unit (Flexcell International Corp). RNA was then harvested (using the Qiagen Rneasy mini kit) immediately or 24 hr post loading from both the mechanical strained samples as well as the non-strained controls. All data shown in the examples that utilize the FlexerCell were derived from the RNA immediately harvested following loading.
Real-time PCR was then performed for the indicated genes using mouse gene specific primers and probes as discussed above.
RNA was isolated immediately after application of load and processed for TaqMan® analysis. The transcripts analyzed were COX-2, eNOS, Connexin 43, SFRP1, Wnt10B, cyclin D1, Frizzled 2, WISP2, Fos and Jun (FIG. 15).
Here, Wnt 3A conditioned media was obtained from mouse L-cells transfected with murine Wnt 3A. The MC3T3 cells were seeded and cultured for 3 days in growth media until confluence, as described above. The media for the MC3T3 cells was then changed to BSA containing media, and the cells were incubated for 24 hours. The BSA-containing media was then removed and replaced with fresh BSA media at a final volume of 1 mL containing various amounts of L-cell Wnt 3A conditioned media or control conditioned media from untransfected L-cells. The amount of Wnt 3A conditioned media varied from 0.5, 2.0, 5.0, 10.0, 20.0 and 100 μL in a final volume of 1 ml serum free BSA media. The MC3T3 cells were then subjected to 3,400 με at 2 Hz, 7200 cycles/hr for 5 hours as described in the prior examples.

A further assay deals with β-catenin. Put plainly: Mouse calvarial model: β-catenin immunohistochemistry. The class given is in vivo. The following applies: local injection.
In assay [2] the test system is alkaline phosphatase activity in calvarial osteoblasts. Put plainly: Mouse calvarial model: alkaline phosphatase histochemical staining. The class given is in vivo. The conditions noted are these: local administration, 7 days, vs vehicle.
Description: Following sacrifice by CO2 narcosis, calvariae were removed intact, soft tissues were gently dissected, and the bones were fixed in 70% ethanol for 24 h for further processing and analysis. Calvariae were then bisected perpendicular to the sagittal suture through the central portion of the parietal bones parallel to the lambdoidal and coronal sutures. The anterior portion of the calvaria was used for paraffin sections, and the posterior portion of the calvaria was used for frozen sections. Four to five 5 μm-thick representative, non-consecutive step sections were cut. […] The frozen sections were used for alkaline phosphatase detection. To facilitate histomorphometric measurements, a standard length of 2 mm of each section from the edge of the sagittal suture to the muscle insertion at the lateral border of each bone was used. All measurements were made using the R&M Biometrics Inc. Bioquant Image Analysis System.
The activity of Alkaline Phosphatase (ALPase) was assessed with a histochemical stain using a Vector Red Alkaline Phosphatase Substrate Kit (Vector Laboratories, Inc. Burlingame, Calif.) in 6 μm frozen sections of the mouse parietal bone after fixing in 70% Ethanol.
In the next assay the test system is mouse calvariae. Briefly: Mouse calvarial model: calvarial thickness (histomorphometry). The class given is in vivo. The following applies: 20 μg/kg/day.
Assay [3] has as its system Dkk1 suppressed Wnt1/Wnt 3A TCF-signal in U2OS cells. Briefly: Release of Dkk1 mediated inhibition of TCF-signal in U2OS cells. The class given is cell-based, human. The following applies: Dkk1 0.1 μg/well co-transfected with Wnt1 or Wnt 3A. As to the method: The final readout is activation of Dkk1 mediated suppressed TCF-signal. […] The experiment represented in FIG. 2 involved U2OS (ATCC) bone cells and is based on the endogenous expression of LRP5/6 receptors. […] 10 μL of the 15× stock was added per well along with appropriately diluted vehicle (i.e., DMSO) control.

Consider four molecules from patent US20060252045A1, “Methods and materials for identifying agents which modulate bone remodeling and agents identified thereby” (priority 2003, published 2006).

Description for mouse calvariae: Following sacrifice by CO2 narcosis, calvariae were removed intact, soft tissues were gently dissected, and the bones were fixed in 70% ethanol for 24 h for further processing and analysis. Calvariae were then bisected perpendicular to the sagittal suture through the central portion of the parietal bones parallel to the lambdoidal and coronal sutures. The anterior portion of the calvaria was used for paraffin sections, and the posterior portion of the calvaria was used for frozen sections. Four to five 5 μm-thick representative, non-consecutive step sections were cut. The paraffin sections are routinely stained with hematoxylin and eosin (H&E) for the measurement of calvarial thickness. The frozen sections were used for alkaline phosphatase detection. To facilitate histomorphometric measurements, a standard length of 2 mm of each section from the edge of the sagittal suture to the muscle insertion at the lateral border of each bone was used. All measurements were made using the R&M Biometrics Inc. Bioquant Image Analysis System.

In the case of `CS(=O)(=O)Nc1ccc([N+](=O)[O-])cc1OC1CCCCC1` [NS-398, N-(2-cyclohexyloxy-4-nitrophenyl)methanesulfonamide], in assay [1], the “load induced Frizzled 2, eNOS, Fos and Jun gene expression” value was “no effect”; the “load induced Connexin 43, Cyclin D1, Wnt 10b, SFRP1 and COX-2 gene expression” value is recorded as “block the induction”. In addition, in assay [1] (listed as COX-2 inhibitor), the “load induced Connexin 43, Cyclin D1, Wnt 10b, SFRP1 and COX-2 gene expression” value is reported as “does not induce transcription”; the “load induced Frizzled 2, eNOS, Fos and Jun gene expression” value is given as “independent of COX-2 activity”.
“Human PTH (1-34): Human parathyroid hormone (1-34), positive control in the calvarial model (SVSEIQLMHNLGKHLNSMERVEWLRKKLQDVHNF; Parathyroid hormone; UniProt P01270 32-65, looked up, fragment)”: the “β-catenin expression in osteoblastic cells lining the periosteum” value in the assay with β-catenin is recorded as “no effect”. Further, the “alkaline phosphatase (ALPase) activity in osteoblasts” value in assay [2] is reported as “markedly enhanced”. The “effect on calvarial thickness (positive control)” value with mouse calvariae is on record as “significant increase in calvarial thickness”.
For the molecule Wnt 3A, the “cyclin D1, connexin 43, SFRP1, Wnt 10B, WISP2, COX-2, FOS and JUN gene expression, alone” value in assay [1] (MC3T3, Wnt 3A conditioned media, no load) was “no effect”.

B1: Dkk1: Wnt antagonist co-transfected into U2OS cells; inhibits LRP5 activity (protein, UniProt O94907 32-266, looked up)
Dickkopf-related protein 1: TLNSVLNSNAIKNLPPPLGGAAGHPGSAVSAAPGILYPGGNKYQTIDNYQPYPCAEDEECGTDEYCASPTRGGDAGVQICLACRKRRKRCMRHAMCCPGNYCKNGICVSSDQNHFRGEIEETITESFGNDHSTLDGYSRRTTLSSKMYHTKGQEGSVCLRSSDCASGLCCARHFWSKICKPVLKEGQVCTKHRRKGSHGLEIFQRCYCGEGLSCRIQKDHHQASNSSRLHTCQRH
Take B1: the “effect on Wnt1/Wnt 3A TCF-activity” value in assay [3] is reported as “suppressed almost completely”.
